Reference: patent US20140123342A1, “Regulation of Stomatal Apertures by Apyrases and Extracellular Nucleotides” (BOARD OF REGENTS, THE UNIVERSITY OF TEXAS SYSTEM, priority 2011, published 2014)

Columns and labels:
Format in all cases: cell-based, Arabidopsis thaliana
[1] = system: stomata (guard cells) in epidermal peels; assay: Stomatal aperture closure studies, epidermal peels in the light
Method: (§1) Stomatal Aperture Studies: Arabidopsis thaliana ecotypes Columbia (Col-0) and Wassilewskija (WS) were used as wild types in this study. Col-0, nia1nia2, atrbohD/F, R2-4A and WS plants were all grown on autoclaved Metro-Mix 200 soil at 22° C. under continuous light. The mutant seeds nia1nia2 nia2-5; CS 2356; Col-0 background) were obtained from Dr. N. M. Crawford (University of California at San Diego) and the mutant seeds atrbohD/F (Col-0 background) were obtained from Dr. J. M. Kwak (University of Maryland). The RNAi mutant apyrase line (R2-4A) is in WS background, so WS ecotype was used as the control wild type for these studies. Leaves from 2 to 3 week old Col-0 plants, or R2-4A and WS plants treated with 4 μM estradiol for 1 week after development of mature basal leaves were used for peel and whole leaf studies. Plants were placed in the dark and watered 24 h before an study. For opening studies, plants were used immediately after 24 h dark treatment and all treatments were done in the dark except for the light treated leaves or peels, thus the control stomata are dark controls. For closure studies, plants were placed in the light 3 h before an study to induce stomatal opening and all treatments were done in the light, thus the control stomata are light controls. For peel studies, epidermal peels were made from the underside of the leaf and treatments were applied to the peels for 1 h. For whole leaf studies, leaves were removed and treatments were applied for 2 h. For each treatment, about 3 or 4 peels collected from different leaves or 3 or 4 different leaves of at least two different plants were floated with the abaxial side up in petri dishes on 3 mL of Arabidopsis leaf buffer consisting of 10 mM KCl, 25 mM MES pH 6.15 (Melotto et al., 2006) and the chemical being tested. For whole leaf studies peels were collected after the treatment.
(§2) For studies testing the effects of ATPγS, ADPγS, AMPS, RB2, and PPADS (Sigma, St. Louis, Mo., USA) 20 mM stocks were made by dissolving the compounds in de-ionized water. For studies testing the effects of apyrase inhibitors, 7.5 mg/mL of NGXT191 and of inhibitor #13 (Windsor et al., 2002) was dissolved in dimethyl sulfoxide (DMSO) and then applied at a dilution of […] for a final concentration of 0.1% DMSO. ABA (Sigma, St. Louis, Mo., USA) was dissolved in ethanol in 10 mM stocks and then applied at a dilution of 1:1000. The stocks were stored at −20° C. while not in use. The production of the anti-AtAPY1 antibodies used is described by Steinebrunner et al. (2003). The crude immune and pre-immune sera were purified using protein A-Sepharose following the protocol described by Martin (1982) with the slight modification that the buffers used were azide-free. The protein-A purified sera were both used at a 1:1000 dilution in leaf stomatal aperture studies. The concentration of the immune and pre-immune sera, determined by Bradford assay (Bio-Rad), was 10.2 μg/mL and 7.7 μg/mL, respectively.
(§3) After treatment, photos of stomata were taken using a light microscope at 20×. Stomatal aperture width was measured using the image processing software ImageJ. Typically, photos were taken of 70 to 90 stomata per treatment of which only 50 stomata were measured for each treatment. For each treatment the ratio of closed stomata (width of 0) to open stomata was determined for all stomata imaged and this ratio was maintained in the 50 stomata that were measured for each treatment. Data shown uses apertures determined as width/length, however data in all studies also obtained as width only and generally width/length and width only data are in agreement with each other. Statistical significance of the measurements for the treatments was determined using the Student's t test in Microsoft Excel.

[2] = system: stomata (guard cells) in epidermal peels; assay: Stomatal aperture opening studies, epidermal peels in the dark
Method: as §1, §2, §3

[3] = system: stomata (guard cells) in whole leaves; assay: Stomatal aperture closure studies, whole leaves in the light; conditions: for effect on ABA-induced stomatal closure / effect on ATPγS-induced stomatal closure: co-incubation
Method: as §1, §2, §3

[4] = system: stomata (guard cells) in whole leaves; assay: Stomatal aperture opening studies, whole leaves in the dark
Method: as §1
as §2, with “The crude immune and pre-immune sera were purified using protein A-Sepharose following the protocol described by Martin (1982) with the slight modification that the buffers used were azide-free. The protein-A purified sera were both used at a 1:1000 dilution in leaf stomatal aperture studies.” left out
as §3

[5] = system: guard cells of x-luc1 and x-luc9 ecto-luciferase lines; assay: Ecto-luciferase luminescence imaging of extracellular ATP in epidermal peels
Text: Ecto-luciferase Construct and Plant Transformation: The nucleotide sequence for the 24 amino acid, cleavable signal peptide from the Brassica pollen coat protein, S-locus cysteine-rich protein (SCR13; AF195626) was used to target luciferase for secretion (Schopfer et al., 1999). The signal peptide was incorporated at the N-terminus of the luciferase gene by PCR and the SCR13 signal peptide modified luciferase PCR product was then ligated into the binary vector pLBJ21. This construct was then transformed into Agrobacterium tumefaciens strain GV3101 (pMP90) and then transformed into Arabidopsis plants (Col-0) using the floral dipping method (Clough and Bent, 1998). Transgenic plants were selected by planting on solidified Murashige and Skoog (MS) medium (4.3 g/L Murashige and Skoog salts (Sigma), 0.5% (w/v) MES, and 1.0% (w/v) agar, raised to pH 5.7 with 5 M KOH) containing 50 μg/mL kanamycin. Segregation of T3 generation on kanamycin plates was analysed in order to obtain homozygous lines. Plants showing kanamycin resistance were checked for luciferase activity by growing transgenic plants in MS medium for 10 days and then transferring the whole seedlings into test tubes. Luminescence measurements were performed by placing the test tubes in the light-tight housing of the luminometer reader (Dynatech). Experimental solutions with luciferin substrate with and without 1 mM ATP were injected by an automatic injector, and after 3 seconds counting started at 0.2 second time intervals.
Imaging of Luminescence in Ecto-luciferase Plants: Ecto-luciferase seeds were surface-sterilized, stratified in the dark in 4° C. for at least three days and then planted directly on a cellophane membrane placed upon solidified MS with 1.0% (w/v) agar. Planted plates were placed upright in a culture chamber and grown at 23° C. under 24-h fluorescent light for 7 days. Plates were then reoriented so that the solidified MS medium was at the bottom of the plate and the seedling was able to grow up into the empty space of the petri dish. Seedlings were then allowed to mature for up to 4 weeks under identical temperature and light settings. For “dark” studies petri dishes of 3-4 week old plants were placed in a dark chamber for 24 hours prior to use in the studies.
Mature basal leaves were excised from x-luc1 and x-luc9 plants 3-4 weeks old. Peels were taken and then immediately floated with the abaxial side up in 40 μL, of Arabidopsis leaf buffer on a microscope slide and the chemical being tested in either light or dark conditions depending on the experimental setup. The placing of the peels within their respective solution was considered time zero. Peels were treated for a minimum of 5 minutes before luciferin and flash buffer were added to the solution. […] Luminescence was integrated over 120 seconds, High Gain, Read Out set to slow, using 4×4 pixel binning with Cosmic Suppression on, Background Correction off, and Flatfield Correction off with the filter set to Photo.
All luminescence analysis was conducted using the indiGO Analysis Software (version 2.0.0.26). All images consisted of a photographic image in grayscale with an overlaid luminescence image in pseudo color. […]

H2O2 in guard cells = assay: Detection and quantification of H2O2 (H2DCFDA fluorescence); conditions: co-incubation (data not shown)
Method: (§4) Detection and Quantification of H2O2 and NO: Col-0 plants were grown on soil for 2 to 4 weeks under continuous light at 21° C. Plants were placed in the dark for 24 h to ensure closure and then transferred to the light for 1 h. After 1 h in the light, mature basal leaves were excised and blended in a Waring blender on the low setting for approximately 10 s to isolate epidermal tissues, and the tissues were placed in 3 mL of 30 mM KCl, 10 mM Mes-KOH, pH 6.16 buffer in light for 2 h (Pei et al., 2000; Murata et al., 2001). DAF-2 DA and H2DCFDA were dissolved in DMSO to produce 5 mM and 10 mM stock solutions, respectively, and these were stored at −20° C. in 30 μL, aliquots. Fifty μM H2DCFDA or 15 μM DAF-2 DA was added to the medium in the dark, and after 30 min, 10 μM ABA, 200 μM ATPγS, or buffer (ATP control) was also added to the medium in the dark for 30 min. Peels were then rinsed by decanting the treatment solution and adding 3 mL fresh leaf buffer to the peels. Peels were rinsed twice as described. A peel from each of the three treatments (ABA, ATPγS and buffer) were placed on the same microscope slide and observed sequentially. A second study was staggered 30 to 45 min after the first by loading the H2DCFDA or DAF-2 DA dye to new peels 30 to 45 min after the first round of dye was added. Confocal laser scanning microscopy (CLSM) was performed with a Leica SP2 AOBS confocal microscope (Leica Microsystems, Bannockburn, Ill., USA). Laser power was set at 15%, with an excitation of 488 nm and an emission of 525 nm. A series of 0.5 μm optical sections with average intensity projection along the z axis were collected and made into one 2D image with greater focal depth. All images were obtained with the same software scanning settings including detector gain and laser intensity settings.

NO in guard cells = assay: Detection and quantification of NO (DAF-2 DA fluorescence); conditions: co-incubation (data not shown)
Method: as §4

[6] = 30 μM, whole leaf studies (not shown)
[7] = co-incubation, 30 μM, leaves (data not shown)
[8] = co-incubation, epidermal peel studies (data not shown)

Nc1ncnc2c1ncn2[C@@H]1O[C@H](COP(O)(O)=S)[C@@H](O)[C@H]1O [AMPS]
effect on stomatal aperture ([1]; 200 μM, dose-response tests, summary statement): neither 15 μM nor 200 μM AMPS has any effect
effect on stomatal aperture ([1]; 250 μM, epidermal peels, light, 1 h): no effect on stomatal aperture
effect on stomatal aperture ([2]; 15 μM, darkness, 1 h): no effect on stomatal aperture

Cc1cccc(NS(=O)(=O)c2ccc(-c3ccccc3)cc2)c1 [NGXT 191, N-(3-methylphenyl)-4-biphenylsulfonamide]
effect on stomatal aperture ([1]; 7.5 μg/mL, epidermal peels, light, 1 h): induced stomatal closure

Nc1c(S(=O)(=O)O)cc(Nc2ccc(Nc3nc(Cl)nc(Nc4cccc(S(=O)(=O)O)c4)n3)c(S(=O)(=O)O)c2)c2c1C(=O)c1ccccc1C2=O [RB2, reactive blue 2]
effect on stomatal aperture ([3]; 30 μM alone, closure studies, leaves): no effect alone
effect on ABA-induced stomatal closure [3, 6]: partially block
effect on ATPγS-induced stomatal closure [3, 6]: block
effect on stomatal aperture ([4]; 30 μM alone, opening studies, leaves): no effect by itself
effect on ATPγS-induced stomatal opening [4, 7]: block
effect on light-induced stomatal opening [4, 7]: partially block

Nc1ncnc2c1ncn2[C@@H]1O[C@H](COP(=O)(O)OP(=O)(O)OP(=O)(O)O)[C@@H](O)[C@H]1O [ATP]
ecto-luciferase luminescence, average ([5]; 1 mM, 5 min or longer, x-luc1 and x-luc9 lines, centered around guard cells): 4.75 counts per second (cps)
ecto-luciferase luminescence of pavement cells, average ([5]; 1 mM, pavement cells of the epidermis): 1.35 cps

CC(=O)N[C@@H](CS)C(=O)O [NAC, N-acetyl-L-cysteine]
effect on ABA- and ATPγS-induced H2DCFDA fluorescence (H2O2 in guard cells): blocked

Cc1nc(N=Nc2ccc(S(=O)(=O)O)cc2S(=O)(=O)O)c(COP(=O)(O)O)c(C=O)c1O [PPADS, pyridoxalphosphate-6-azo-phenyl-2′,4′-disulphonic acid]
effect on stomatal aperture ([1]; 100 μM alone, epidermal peels, light): no effect by itself
effect on NGXT 191-induced stomatal closure ([1]; co-incubation, 100 μM, with 7.5 μg/mL NGXT 191, epidermal peels): blocked
effect on ABA-induced stomatal closure [1, 8]: partially block
effect on ATPγS-induced stomatal closure [1, 8]: block
effect on stomatal aperture ([3]; 100 μM alone, leaves, light): no effect alone
effect on ABA-induced stomatal closure ([3]; 100 μM, with 10 μM ABA, leaves): partially blocked
effect on ATPγS-induced stomatal closure ([3]; 100 μM, with 200 μM ATPγS, leaves): blocked
effect on stomatal aperture ([2]; 100 μM alone, opening studies): no effect alone
effect on light-induced stomatal opening ([2]; co-incubation, 100 μM): partially blocked
effect on ATPγS-induced stomatal opening ([2]; co-incubation, 100 μM, with 15 μM ATPγS): blocked
effects in opening studies compared with epidermal peels ([4]; whole leaves (data not shown), alone, on ATPγS-induced and on light-induced opening): the same effects

CC1(C)N([O])C(c2ccc(C(=O)O)cc2)=[N+]([O-])C1(C)C [cPTIO]
effect on ABA- and ATPγS-induced DAF-2 DA fluorescence (NO in guard cells): blocked

O=C(Nc1cccc([N+](=O)[O-])c1)c1cccc(S(=O)(=O)Nc2ccc(Br)cc2)c1 [apyrase inhibitor #13, 3-{[(4-bromophenyl)amino]sulfonyl}-N-(3-nitrophenyl)benzamide]
effect on stomatal aperture ([3]; 7.5 μg/mL, whole leaves (data not shown)): caused stomatal closure

Nc1ncnc2c1ncn2[C@@H]1O[C@H](COP(=O)(O)OP(O)(O)=S)[C@@H](O)[C@H]1O [ADPβS]
threshold for nucleotide-induced stomatal closure ([1]; epidermal peel studies, light): same threshold
threshold for nucleotide-induced stomatal closure ([3]; whole leaf studies, compared with peel studies (150 to 200 μM; not shown)): the same as found in the peel studies
ecto-luciferase luminescence of stomata, average ([5]; 200 μM, 5 min, open stomata (data not shown)): 2.75 cps
